According to paper PMC4774972, “Activity and Predicted Nephrotoxicity of Synthetic Antibiotics Based on Polymyxin B” (Journal of Medicinal Chemistry, 2016):
Values after ≈ are worked out from the molar mass of the structure shown. Numbered stars: 1 amine (or outer) side, 2 acyl side, 3 side chain; on linkers, the order of the positions; unused ones are H or OH. Bridge positions count the residues as written; N and C are the ends. Square brackets hold non-standard residues; d marks the D form. Peptide text beside a SMILES is read from it. * marks the point of attachment. Benzoyl(4-OPh) = O=C(c1ccc(Oc2ccccc2)cc1)*; Benzoyl(4-Ph) = O=C(c1ccc(-c2ccccc2)cc1)*; dGly(nOct) = CCCCCCCC[C@@H](N)C(=O)O; NH(2-ClPh) = Clc1ccccc1N*; Octanoyl = CCCCCCCC(=O)*; Dab = NCC[C@H](N)C(=O)O; CO = O=C([*:1])[*:2]

What was measured:
[1] = tested on: K. pneumoniae CI Koprana 100650661:1, PmxR; conditions: MIC K. pneumoniae CI Koprana 100650661:1, PmxR (µg/mL)
[2] = tested on: K. pneumoniae ATCC 13883; conditions: MIC K. pneumoniae ATCC 13883 (µg/mL)
[3] = tested on: E. coli ATCC 25922; conditions: MIC E. coli ATCC 25922 (µg/mL)
[4] = tested on: K. pneumoniae CI 138-16357-20362, PmxR; conditions: MIC K. pneumoniae CI 138-16357-20362, PmxR (µg/mL)
[5] = tested on: S. aureus ATCC 25923, MSSA; conditions: MIC S. aureus ATCC 25923, MSSA (µg/mL)
[6] = tested on: A. baumannii CI Ptyela 100734512:2, PmxR; conditions: MIC A. baumannii CI Ptyela 100734512:2, PmxR (µg/mL)
[7] = tested on: P. aeruginosa ATCC 27853; conditions: MIC P. aeruginosa ATCC 27853 (µg/mL)
[8] = tested on: P. aeruginosa PA9704, PmxR; conditions: MIC P. aeruginosa PA9704, PmxR (µg/mL)
[9] = tested on: HepG2; conditions: CC50 HepG2 (µM)
[10] = tested on: K. pneumoniae CI Koprana 100650661:1, PmxR; assay: microbe, parasite or virus in culture; assay type: cell-based, Klebsiella pneumoniae; conditions: carbapenem & polymyxin resistant clinical isolate; MHB, 5 × 10^5 CFU/mL, 18 h at 37 °C
Description: (§1) Bacteria were either obtained from American Type Culture Collection (ATCC; Manassas, VA, USA) or independent academic clinical isolate collections, as listed in Table S2. Bacteria were cultured in nutrient broth (NB; Bacto Laboratories, catalog no. 234000) or Muller Hinton broth (MHB; Bacto Laboratories, catalog no. 211443) at 37 °C overnight with shaking (∼180 rpm). A sample of each culture was then diluted 50-fold in fresh MHB and incubated at 37 °C for 1.5–3 h with shaking (∼180 rpm). Compound stock solutions were prepared as 0.64 or 2.56 mg/mL in water. The compounds, at twice the final desired concentration, were serially diluted 2-fold across the wells of 96-well plates (Polystyrene, Corning, catalogue No. 3370). Mid log phase bacterial cultures (after 1.5–3 h incubation) were diluted to a final concentration of 5 × 10^5 colony forming units (CFU)/mL, and 50 μL was added to each well giving a final compound concentration range of 32 μg/mL to 0.015 μg/mL (128–0.06 μg/mL for colistin and polymyxin B against the polymyxin resistant clinical isolates). MICs were determined visually after 18 h of incubation at 37 °C, with the MIC defined as the lowest compound concentration at which no bacterial growth was visible.
(§2) Table S2. Bacterial strains used for Minimum Inhibitory Concentration (MIC) […]
(§3) Organism Strain Strain description Strain Source
(§4) Escherichia coli ATCC 25922 FDA strain Seattle 1946 ATCC
(§5) Klebsiella pneumoniae ATCC 13883 Control strain ATCC
(§6) Klebsiella pneumoniae ATCC 700603 Multi-drug resistant ATCC
(§7) Klebsiella pneumoniae BAA-2146 Metallo-beta-lactamase- ATCC
(§8) Acinetobacter baumannii ATCC 19606 Type strain ATCC
(§9) Pseudomonas aeruginosa ATCC 27853 Type strain ATCC
(§10) Pseudomonas aeruginosa FADDI-PA070 Clinical isolate, Nation and Li labs, polymyxin resistant Monash University
(§11) Clinical isolate, Wang Hengzhuang, Pseudomonas aeruginosa PA9704 polymyxin resistant University Hospital of […]
(§12) Ptyela Clinical isolate, Ilias Karaiskos and Acinetobacter baumannii Carbapenem & Helen Giamarellou
(§13) Clinical isolate, Medicine, Hygeia
(§14) Klebsiella pneumoniae Koprana Carbapenem, & General Hospital, […]
(§15) Clinical isolate, (Instituto Dante […]
(§16) polymyxin resistant Cardiologia, São […]

[11] = tested on: K. pneumoniae CI 138-16357-20362, PmxR; assay: microbe, parasite or virus in culture; assay type: cell-based, Klebsiella pneumoniae
Description: as §1, §2, §3, §4, §5, §6, §7, §8, §9, §10, §11, §12, §13, §14, §15, §16

[12] = tested on: primary human renal proximal tubule epithelial (hPT) cells; assay: Nephrotoxicity assay, GGT release; assay type: cell-based; conditions: for release of GGT: at 100 μg/mL in the primary kidney cells; for GGT release CC50: primary human kidney cells
Description: (§17) Primary human renal proximal tubule epithelial (hPT) cells were isolated and used for in vitro prediction of drug-induced nephrotoxicity[63],[64],[69] by measuring the release of metabolism enzymes, LDH and GGT, as previously described.[70]

[13] = tested on: primary human renal proximal tubule epithelial (hPT) cells; assay: Nephrotoxicity assay, LDH release; assay type: cell-based; conditions: for release of LDH: at 100 μg/mL in the primary kidney cells; for LDH release CC50: primary human kidney cells
Description: as §17

[14] = tested on: S. aureus ATCC 25923, MSSA; assay: microbe, parasite or virus in culture; assay type: cell-based, Staphylococcus aureus; conditions: MHB, 5 × 10^5 CFU/mL, read visually after 18 h at 37 °C
Description: as §1, §2, §3, §4, §5, §6, §7, §8, §9, §10, §11, §12, §13, §14, §15, §16

[15] = tested on: A. baumannii CI Ptyela 100734512:2, PmxR; assay: microbe, parasite or virus in culture; assay type: cell-based, Acinetobacter baumannii; conditions: carbapenem & polymyxin resistant clinical isolate; MHB, 5 × 10^5 CFU/mL, 18 h at 37 °C
Description: as §1, §2, §3, §4, §5, §6, §7, §8, §9, §10, §11, §12, §13, §14, §15, §16

[16] = tested on: P. aeruginosa FADDI-PA070, PmxR; conditions: MIC P. aeruginosa FADDI-PA070, PmxR (µg/mL)
[17] = tested on: HepG2 cells; assay: Cytotoxicity assay (resazurin assay); assay type: cell-based, human; conditions: 4000 cells/well, 24 h incubation with compound, fluorescence 560/590
Description: Cytotoxicity to HEK293 and HepG2 cells was determined using the resazurin assay.[67],[68] […] Compounds were then added into each well. After 24 h incubation, 5 μM resazurin was added per well and incubated at 37 °C for 2 h. Fluorescence intensity was then read using a Polarstar Omega with excitation/emission 560/590. The data were then analyzed using GraphPad Prism 6 software. CC50 values were determined using GraphPad Prism 6 software (Inc. La Jolla, CA).

[18] = tested on: P. aeruginosa PA9704, PmxR; assay type: cell-based, Pseudomonas aeruginosa; conditions: polymyxin resistant clinical isolate; MHB, 5 × 10^5 CFU/mL, 18 h at 37 °C
Description: as §1, §2, §3, §4, §5, §6, §7, §8, §9, §10, §11, §12, §13, §14, §15, §16

[19] = carbapenem & polymyxin resistant clinical isolate, MHB, 5 × 10^5 CFU/mL, 18 h at 37 °C

Row | SMILES | MIC [1] [µg/mL] | MIC [4] [µg/mL] | MIC [5] [µg/mL] | MIC [6] [µg/mL] | MIC [8] [µg/mL] | CC50 [9] [µM] | MIC K. pneumoniae CI Koprana 100650661:1, PmxR [10] [µg/mL] | MIC K. pneumoniae CI 138-16357-20362, PmxR [11, 19] [µg/mL] | release of GGT [12] | GGT release CC50 [12] [µg/mL] | release of LDH [13] | LDH release CC50 [13] [µg/mL] | also measured
1 | CCCCCCCC[C@H]1NC(=O)[C@H](CCN)NC(=O)[C@@H](NC(=O)[C@H](CCN)NC(=O)[C@@H](NC(=O)[C@H](CCN)NC(=O)CCCCCCC)[C@@H](C)O)CCNC(=O)[C@H]([C@@H](C)O)NC(=O)[C@H](CCN)NC(=O)[C@H](CCN)NC(=O)[C@H](CC(C)C)NC1=O (Octanoyl-[Dab]T[Dab][Dab][Dab][dGly(nOct)]L[Dab][Dab]T; lactam 4-C) | 16 (≈ 13.2 µM) | 16 (≈ 13.2 µM) | 16 (≈ 13.2 µM) | 16 (≈ 13.2 µM) | 8 (≈ 6.6 µM) | 254 | – | – | – | – | – | – | MIC [2]: 2 µg/mL (≈ 1.65 µM); MIC [3]: 2 µg/mL (≈ 1.65 µM); MIC [7]: 2 µg/mL (≈ 1.65 µM)
2 | CC(C)C[C@@H]1NC(=O)[C@@H](Cc2ccccc2)NC(=O)[C@H](CCN)NC(=O)[C@@H](NC(=O)[C@H](CCN)NC(=O)[C@@H](NC(=O)[C@H](CCN)NC(=O)c2ccc(-c3ccccc3)cc2)[C@@H](C)O)CCNC(=O)[C@H]([C@@H](C)O)NC(=O)[C@H](CCN)NC(=O)[C@H](CCN)NC1=O [Compound 10] ({Benzoyl(4-Ph)}-[Dab]T[Dab][Dab][Dab][dF]L[Dab][Dab]T; lactam 4-C) | > 32 | > 32 | > 32 | – | > 32 | 298 | >32 | >32 | almost no release | >128 | almost no release | >128 | –
3 | CC(C)C[C@@H]1NC(=O)[C@@H](Cc2ccccc2)NC(=O)[C@H](CCN)NC(=O)[C@@H](NC(=O)[C@H](CCN)NC(=O)[C@@H](NC(=O)[C@H](CCN)NC(=O)Nc2ccccc2Cl)[C@@H](C)O)CCNC(=O)[C@H]([C@@H](C)O)NC(=O)[C@H](CCN)NC(=O)[C@H](CCN)NC1=O [Compound 13] ({NH(2-ClPh)-CO}-[Dab]T[Dab][Dab][Dab][dF]L[Dab][Dab]T; lactam 4-C) | > 32 | > 32 | > 32 | > 32 | > 32 | > 300 | >32 | >32 | – | – | – | – | MIC S. aureus ATCC 25923, MSSA [14]: >32 µg/mL; MIC A. baumannii CI Ptyela 100734512:2, PmxR [15]: >32 µg/mL; MIC [16]: > 32 µg/mL; HepG2 - CC50 [17]: >300 µM; MIC P. aeruginosa PA9704, PmxR [18]: >32 µg/mL
4 | CC(C)C[C@@H]1NC(=O)[C@@H](Cc2ccccc2)NC(=O)[C@H](CCN)NC(=O)[C@@H](NC(=O)[C@H](CCN)NC(=O)[C@@H](NC(=O)[C@H](CCN)NC(=O)c2ccc(Oc3ccccc3)cc2)[C@@H](C)O)CCNC(=O)[C@H]([C@@H](C)O)NC(=O)[C@H](CCN)NC(=O)[C@H](CCN)NC1=O [Compound 14] ({Benzoyl(4-OPh)}-[Dab]T[Dab][Dab][Dab][dF]L[Dab][Dab]T; lactam 4-C) | > 32 | > 32 | > 32 | – | – | 287 | >32 | – | almost no release | >128 | almost no release | >128 | MIC K. pneumoniae CI 138-16357-20362, PmxR ([11]; CI 138-16357-20362, PmxR, 18 h): >32 µg/mL
